Patent publication US9241889B2, “Oral compositions comprising sodium dodecylbenzene sulfonate” (Glaxo Group Limited, priority 2010, dated 2016)

Legend:
[1] = Hydroxyapatite Stain Prevention Model (HASP)
Protocol: A 96 well hydroxyapatite coated microtitre plate was treated with whole unstimulated human saliva (100 μl per well) at 37° C./100 rpm. After 1 hour the plate was washed to remove any unbound components and 200 μl of each test active was transferred to the plate in columns along with a positive and negative control (5% sodium tripolyphosphate, STP), and water respectively) and the plate returned to the incubator. After 10 minutes the plate was once again washed and the plate was stained by the application of 200 μl of fresh tea solution (1 teabag (PG tips)/50 ml of deionised water). After an additional 10 minutes of incubation, the tea was removed and the plate washed. Finally, the bound stain was desorbed by the application of 200 μl of 2.5M citric acid per well. After a minimum of 12 hours, 180 μl of the tea/citric acid solutions were transferred to a clean, normal (not HA coated) 96 well microtitre plate and the absorption measured 405 nm.

[2] = Hydroxyapatite Tea Stain Removal Model (HATSR)
Protocol: A 96 well hydroxyapatite coated microtitre plate was treated with 100 μl aliquots of tea per well (1 teabag (PG Tips)/50 ml of deionised water) and the plate incubated at 37° C./100 rpm. After 10 minutes the plate was washed with deionised water and dried at 37° C. overnight. The test actives (200 μl per well) were added into each column of the tea coated plate along with the positive and negative control (5% sodium tripolyphosphate (STP) and water respectively) and the plate returned to the incubator. After 10 minutes the plate was once again washed and the bound stain was desorbed by the application of 200 μl of 2.5M citric acid per well. After a minimum of 12 hours, 180 μl of the tea/citric acid solutions were transferred to a clean, normal (not HA coated) 96 well microtitre plate and the absorption measured 405 nm.

**Q.** Which results are given for “sodium dodecylbenzene sulphonate [SDDBS]”?
**A.** stain prevention versus water negative control ([1]; 0.1% SDDBS, pH 7, FIG. 1): only directionally superior; stain prevention (uptake of dietary stain onto HASP model oral surfaces) ([1]; SDDBS solutions 0.1%-10%, pH 7, n=8, FIG. 1): prevents the uptake of dietary stain; stain prevention versus positive control 5% STP ([1]; all SDDBS concentrations 0.1%-10%, pH 7, FIG. 1): none were as effective as the positive control STP; stain prevention versus water negative control ([1]; all SDDBS concentrations except 0.1%, pH 7, FIG. 1): statistically superior to the water negative control; stain prevention versus SLS ([1]; equivalent concentration (1% surfactant), pH 7, n=8, FIG. 3): statistically superior to sodium lauryl sulphate (SLS); stain removal ([2]; SDDBS solutions 0.1%-10%, pH 7, n=8, FIG. 2): removes stain in a dose dependent manner; stain removal versus water negative control ([2]; all SDDBS concentrations except 0.125%, pH 7, FIG. 2): statistically superior to the water negative control; stain removal versus positive control 5% STP ([2]; all SDDBS concentrations, pH 7, FIG. 2): none were as effective as the positive control STP
